Experimental data: US12390436B1, “Mutations in mitochondrial enzyme GPT2 cause metabolic dysfunction and neurological disease with developmental and progressive features” (priority 2020, dated 2025)
“Also recorded” adds a separate entry of the source.

What was measured:
germline Gpt2-null mice = assay: Dietary supplementation of germline Gpt2-null mice: survival and phenotype; assay type: in vivo, mouse
Excerpt: Vertebrate animal assays. The assays use a wild-type mouse line and a genetically modified mouse line (i.e., germline Gpt2-null line). A person having ordinary skill in the biomedical art can perform these assays following the procedures in protocol 18-11-0002, approved by the Brown University Institutional Animal Care and Use Committee (IACUC). All animals used in assays described in this specification were housed at the Brown University Animal Care Facility.
Rescue of motor phenotype in vivo with dietary modifications. Synthesis of alanine in the brain is prominently deficient in Gpt2-null animals. An overriding hypothesis (OH1) is that, in the absence of GPT2, alanine changes from a non-essential amino acid to an essential amino acid in neurons, and neuronal alanine deficiency impedes protein synthesis and neuronal growth. The inventors determined there is an anaplerotic defect in Gpt2-null brains (OH2). The inventors are attempting to rescue animal survival, weight gain, and health of the motor system by alanine supplementation, anaplerotic supplementation, and the combination. […] The inventors are testing the extent to which other phenotypic aspects, particularly related to motor defects, are ameliorated by alanine supplementation over time with and without anaplerotic supplementation. The inventors also investigate the requirement for exogenous dietary alanine by removing alanine from the diet of Gpt2-null animals.
Alanine supplementation: Littermate germline Gpt2-null and wild-type animals are fed either high-alanine diet (5% by weight), alanine-deprived diet (0%), or standard chow (1.2%). The formulations generated by Envigo are fed to breeding pairs, pregnant mothers, and pups, based on prior studies by Battaglia & Regnault, Placenta, 22, 145-161 (2001). Food is provided ad libitum. Therefore, newborn Gpt2-mutant pups are receiving the diet throughout gestation and from birth onward. […] The inventors measured alanine in peripheral blood and brain tissue by metabolomics. […]

[1] = in vivo; cited from earlier work
[2] = preclinical studies (Willis et al. 2010; Hadera et al. 2014); cited from earlier work
[3] = clinical trials, e.g., NCT01379625 and NCT01993186 (Vockley et al. 2017); cited from earlier work

## C[C@H](N)C(=O)O [alanine]
Germline Gpt2-null mice; alanine supplementation / high-alanine diet, preliminary work
  effect on survival of germline Gpt2-null animals (in words): impact; also recorded: improves the survival
Germline Gpt2-null mice; dietary supplementation in development, preliminary data
  effect on phenotype in the mouse model of Gpt2 disease (in words): benefited; also recorded: partially ameliorates the phenotype
Germline Gpt2-null mice; supplemental dietary alanine to pregnant and lactating mothers and pups, freely feeding, vs. 0% on standard chow, p<0.0001, log-rank (Mantel-Cox) test
  survival of germline Gpt2-null pups beyond weaning: 36.7%
[1]
  crosses the blood-brain barrier: crosses the blood-brain barrier

## CCCCCCC(=O)OCC(COC(=O)CCCCCC)OC(=O)CCCCCC [triheptanoin, reference compound]
[2]
  antiseizure effects: has antiseizure effects
[3]
  tolerability: well tolerated
